This is an account of results in patent US9890189B2, “Gemcitabine prodrugs and uses thereof” (BoYen Therapeutics, Inc., priority 2012, dated 2018).

The nature of data set [1]: In vitro metabolic conversion assay using human liver S9 fractions. The format is in vitro ADME. To be noted: 10 μM, 37° C., 60 minutes, LC/MS/MS; for Formation of Gemcitabine: not quantitatively monitored. The procedure:
Method H: In Vitro Metabolic Conversion Assay Using Human Liver S9 Fractions
A representative sampling of prodrug compounds was incubated with human liver S9 fractions (Life Technologies Corporation) at 10 μM in duplicates. Incubations were carried out at 37° C. in a shaker water bath. Samples were taken at 0 and 60 minutes. Negative controls (without S9 fractions) and positive controls (7-ethoxycoumarin and 7-hydroxycoumarin) were run concurrently with the test articles in duplicates. All samples were analyzed using LC/MS/MS; depletion of the parent compounds and the formation of gemcitabine were monitored, though the latter was not quantitatively monitored.
After incubation with human liver S9 fractions for 60 minutes, depletion of each test compound was observed along with formation of gemcitabine as a metabolite.

Data set [2] has as its system human HCT116 colorectal adenocarcinoma. As to the kind of experiment: Efficacy evaluation in HCT116 tumor cell xenograft model in nude mice. The following applies: female nude mice, subcutaneous HCT116 tumors, Day 14 vs control group. The data set is classed as in vivo. The procedure: Method I: Efficacy Evaluation in HCT116 Tumor Cell Xenograft Model in Nude Mice Compounds 17, 18, 19 and 32 were evaluated for oral activity against human HCT116 colorectal adenocarcinoma in female nude mice. For the treatment groups, the above compounds were given perorally in 15% Tween 80 at a dose of 20 mg/kg once daily for 14 days. As a reference group, gemcitabine was administered intraperitoneally at 160 mg/kg once every three days for 4 doses. A control group received only the vehicle on the same peroral schedule as that of the treatment groups. Treatment began on Day 1 in all groups of female nude mice (n=8) bearing subcutaneous tumors of ˜180 mm^3 in size; the study duration was 14 days. Treatment results were presented as Tumor Growth Inhibition (TGI) as a percentage of average tumor size of untreated mice in the control group at Day 14.

[3] abbreviates: perorally in 15% Tween 80, 20 mg/kg once daily for 14 days.

Turning to `CCOC(=O)Nc1ccn([C@@H]2O[C@H](CO)[C@@H](OC(=O)CCc3cccnc3)C2(F)F)c(=O)n1` [Compound 59, 1-[(2R,4R,5R)-3,3-Difluoro-5-hydroxymethyl-4-(3-(3-pyridyl)propanoyloxy)oxolan-2-yl]-1,2-dihydro-4-(ethoxycarbonylamino)-pyrimidin-2-one], in data set [1], the “% of Parent Remaining” value was 1% and the “Formation of Gemcitabine” value is reported as “✓”. `Nc1ccn([C@@H]2O[C@H](CO)[C@@H](O)C2(F)F)c(=O)n1` [gemcitabine]: in data set [2] (intraperitoneally 160 mg/kg once every three days for 4 doses), the “Tumor Growth Inhibition (TGI)” value was determined as 85.6%. For `CCOC(=O)Nc1ccn([C@@H]2O[C@H](COC(=O)CCc3ccccc3)[C@@H](O)C2(F)F)c(=O)n1` [Compound 10, 1-[(2R,4R,5R)-3,3-Difluoro-4-hydroxy-5-(3-phenylpropanoyloxymethyl)oxolan-2-yl]-1,2-dihydro-4-(ethoxycarbonylamino)-pyrimidin-2-one], in data set [1], the “% of Parent Remaining” value turned out to be 0% and the “Formation of Gemcitabine” value is on record as “✓”. Take `CCOC(=O)Nc1ccn([C@@H]2O[C@H](COC(=O)CCCCC(=O)Nc3ccccc3)[C@@H](O)C2(F)F)c(=O)n1` [Compound 13, 1-[(2R,4R,5R)-5-((6-Anilino-6-oxo-hexanoyloxy)methyl)-3,3-difluoro-4-hydroxy-oxolan-2-yl]-1,2-dihydro-4-(ethoxycarbonylamino)-pyrimidin-2-one]: in data set [1], the “% of Parent Remaining” value was found to be 13% and the “Formation of Gemcitabine” value was “✓”.

For the molecule `Nc1ccn([C@@H]2O[C@H](COC(=O)CCc3ccccc3)[C@@H](O)C2(F)F)c(=O)n1` [Compound 3, 4-Amino-1-[(2R,4R,5R)-3,3-difluoro-4-hydroxy-5-(3-phenylpropanoyloxymethyl)oxolan-2-yl]-1,2-dihydropyrimidin-2-one], in data set [1], the “% of Parent Remaining” value is 1% and the “Formation of Gemcitabine” value is reported as “✓”.

As for `CCCCOC(=O)Nc1ccn([C@@H]2O[C@H](COC(=O)CCC(=O)Nc3ccccc3)[C@@H](O)C2(F)F)c(=O)n1` [Compound 19, 1-[(2R,4R,5R)-5-((4-Anilino-4-oxo-butanoyloxy)methyl)-3,3-difluoro-4-hydroxy-oxolan-2-yl]-4-(butyloxycarbonylamino)-1,2-dihydro-pyrimidin-2-one], in data set [2] (setting [3]), the “Tumor Growth Inhibition (TGI)” value came to 75.8%.

As for `CCOC(=O)Nc1ccn([C@@H]2O[C@H](COC(=O)CCc3cccnc3)[C@@H](O)C2(F)F)c(=O)n1` [Compound 11, 1-[(2R,4R,5R)-3,3-Difluoro-4-hydroxy-5-(3-(3-pyridyl)-propanoyloxymethyl)oxolan-2-yl]-1,2-dihydro-4-(ethoxycarbonylamino)-pyrimidin-2-one], in data set [1], the “% of Parent Remaining” value worked out at 0% and the “Formation of Gemcitabine” value was “✓”.

Take `CCCCOC(=O)Nc1ccn([C@@H]2O[C@H](COC(=O)CCc3cccnc3)[C@@H](O)C2(F)F)c(=O)n1` [Compound 18, 4-(Butyloxycarbonylamino)-1-[(2R,4R,5R)-3,3-difluoro-4-hydroxy-5-(3-(3-pyridyl)propanoyloxymethyl)oxolan-2-yl]-1,2-dihydro-pyrimidin-2-one]: the “Tumor Growth Inhibition (TGI)” value in data set [2] (setting [3]) came to 81.1%. For the molecule `Nc1ccn([C@@H]2O[C@H](COC(=O)CCCCC(=O)Nc3ccccc3)[C@@H](O)C2(F)F)c(=O)n1` [Compound 6, 4-Amino-1-[(2R,4R,5R)-5-((6-anilino-6-oxo-hexanoyloxy)methyl)-3,3-difluoro-4-hydroxy-oxolan-2-yl]-1,2-dihydropyrimidin-2-one], in data set [1], the “% of Parent Remaining” value came out at 8% and the “Formation of Gemcitabine” value is on record as “✓”. The matching figures for `CCOC(=O)Nc1ccn([C@@H]2O[C@H](CO)[C@@H](OC(=O)CCCCCCC(=O)Nc3ccccc3)C2(F)F)c(=O)n1` [Compound 62, 1-[(2R,4R,5R)-4-(8-Anilino-8-oxo-octanoyloxy)-3,3-difluoro-5-hydroxymethyl-oxolan-2-yl]-1,2-dihydro-4-(ethoxycarbonylamino)-pyrimidin-2-one]: 2% and “✓”. The matching figures for `CCOC(=O)Nc1ccn([C@@H]2O[C@H](CO)[C@@H](OC(=O)CCc3ccccc3)C2(F)F)c(=O)n1` [Compound 58, 1-[(2R,4R,5R)-3,3-Difluoro-5-hydroxymethyl-4-(3-phenylpropanoyloxy)oxolan-2-yl]-1,2-dihydro-4-(ethoxycarbonylamino)-pyrimidin-2-one]: 0% and “✓”.

As for `CCCCOC(=O)Nc1ccn([C@@H]2O[C@H](COC(=O)CCc3ccccc3)[C@@H](O)C2(F)F)c(=O)n1` [Compound 17, 4-(Butyloxycarbonylamino)-1-[(2R,4R,5R)-3,3-difluoro-4-hydroxy-5-(3-phenylpropanoyloxymethyl)oxolan-2-yl]-1,2-dihydropyrimidin-2-one], the “Tumor Growth Inhibition (TGI)” value in data set [2] (setting [3]) was 77.3%. With `CCOC(=O)Nc1ccn([C@@H]2O[C@H](COC(=O)CCCCCCC(=O)Nc3ccccc3)[C@@H](O)C2(F)F)c(=O)n1` [Compound 14, 1-[(2R,4R,5R)-5-((8-Anilino-8-oxo-octanoyloxy)methyl)-3,3-difluoro-4-hydroxy-oxolan-2-yl]-1,2-dihydro-4-(ethoxycarbonylamino)-pyrimidin-2-one], in data set [1], the “% of Parent Remaining” value is on record as 0% and the “Formation of Gemcitabine” value is “✓”. On to `CCCCCOC(=O)Nc1ccn([C@@H]2O[C@H](COC(=O)CCc3cccnc3)[C@@H](O)C2(F)F)c(=O)n1` [Compound 32, 1-[(2R,4R,5R)-3,3-Difluoro-4-hydroxy-5-(3-(3-pyridyl)-propanoyloxymethyl)oxolan-2-yl]-1,2-dihydro-4-(pentyloxycarbonylamino)-pyrimidin-2-one], for which the “Tumor Growth Inhibition (TGI)” value in data set [2] (setting [3]) worked out at 86.7%.
